Results from patent US20250375450A1, “SMARCA2/4 INHIBITION AS A STRATEGY TO TREAT TUMORS THAT HARBOR ABERRANT BAF ASSEMBLIES” (BOARD OF REGENTS, THE UNIVERSITY OF TEXAS SYSTEM, priority 2022, published 2025).

Legend:
Type in all cases: biochemical
SMARCA2 [1] = biological target: T1, SMARCA2 (Homo sapiens, UniProt P51531); experiment: High-throughput screen (HTS) of 40,000 compounds, ATPase assay; settings: HTS against human SMARCA2
T1 construct: The SMARCA2-1 gene (amino acids 437-1493) encompassing all domains; made in house; host or cells: expiSF9 insect cells (baculovirus, pFASTBac1)
T1 sequence (P51531 437-1493): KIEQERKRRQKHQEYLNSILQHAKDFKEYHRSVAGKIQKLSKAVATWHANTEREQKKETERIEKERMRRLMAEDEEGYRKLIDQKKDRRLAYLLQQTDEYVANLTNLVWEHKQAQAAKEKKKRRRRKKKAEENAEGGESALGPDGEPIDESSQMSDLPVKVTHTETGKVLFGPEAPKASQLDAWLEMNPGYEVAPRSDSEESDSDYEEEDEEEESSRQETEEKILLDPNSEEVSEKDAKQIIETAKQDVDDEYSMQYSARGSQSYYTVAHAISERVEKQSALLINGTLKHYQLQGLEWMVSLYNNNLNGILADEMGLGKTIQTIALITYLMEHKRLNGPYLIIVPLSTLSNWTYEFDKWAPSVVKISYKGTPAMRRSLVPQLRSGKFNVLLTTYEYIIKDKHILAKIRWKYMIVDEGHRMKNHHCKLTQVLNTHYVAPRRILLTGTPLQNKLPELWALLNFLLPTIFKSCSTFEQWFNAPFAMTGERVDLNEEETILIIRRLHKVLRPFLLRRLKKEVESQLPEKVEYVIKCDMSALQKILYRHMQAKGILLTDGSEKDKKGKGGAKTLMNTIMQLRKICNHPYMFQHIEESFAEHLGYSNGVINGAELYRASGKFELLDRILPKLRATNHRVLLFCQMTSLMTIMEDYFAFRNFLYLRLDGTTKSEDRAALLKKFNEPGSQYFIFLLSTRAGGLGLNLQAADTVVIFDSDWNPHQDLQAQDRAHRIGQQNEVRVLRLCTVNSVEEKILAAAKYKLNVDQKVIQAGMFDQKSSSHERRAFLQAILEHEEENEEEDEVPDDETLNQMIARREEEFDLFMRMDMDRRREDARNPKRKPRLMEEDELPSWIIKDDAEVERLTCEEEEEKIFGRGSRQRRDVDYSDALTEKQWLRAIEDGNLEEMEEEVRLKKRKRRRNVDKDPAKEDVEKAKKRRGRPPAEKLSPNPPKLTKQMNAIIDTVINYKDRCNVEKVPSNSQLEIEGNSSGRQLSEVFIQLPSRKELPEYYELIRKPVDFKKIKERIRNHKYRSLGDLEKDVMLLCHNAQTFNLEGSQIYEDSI
Source text: The SMARCA2-1 gene (amino acids 437-1493) encompassing all domains (HAS, BRK, ATPase and Bromodomain) required for DNA binding and ATPase activity were cloned into a pFASTBac1 plasmid for insect cell expression (FIG. 2A). In brief, one positive colony was selected and grown to produce enough bacmid DNA. The purified bacmid DNA was used to transfect expiSF9 insect cells using ExpiFectamine protocol as recommended by the manufacturer (Invitrogen). The P0 virus was first generated from the transfected cells, which was subsequently used to generate a P1 virus stock to have enough virus for several rounds of infections and/or large-scale production of SMARCA2-1 enzyme. Next, the experimental conditions were optimized for highest expression of this enzyme and the cultures scaled up to express and purify the enzyme by successive passage of soluble fraction through affinity, ion-exchange, and size exclusion chromatography steps (FIG. 2B). Next, a 29-mer double stranded DNA termed as DNA_EEPD1 (sequence below) was used to measure ATPase activity of SMARCA2 (FIG. 2C and FIG. 2D) and its inhibition by the small molecules described herein (FIG. 4D).
(§1) In brief, the disclosed ATPase assay is based on the inorganic phosphate (Pi) release from the enzymatic reaction, wherein the substrate 2-amino-6-mercapto-7-methylpurine ribose (MESG) is converted by purine phosphorylase (PNP) to ribose 1-phosphate and 2-amino-6-mercapto-7-methylpurine. This conversion changes the spectrophotometric shift of MSEG absorbance from 330 nm to 360 nm (FIG. 1C and FIG. 1D).
Briefly, human SMARCA2 was purified, and a high-throughput screen (HTS) of 40,000 compounds was conducted. […] When cells reached 90% confluency, cells were harvested, washed twice in 1×PBS, counted using trypan blue exclusion method. […] Cells were monitored for 72 hrs. by live cell imaging method (Incucyte S3) taking images every two hours. The confluency was determined and plotted against time (hours) by using Prism software.

SMARCA2 [2] = biological target: T1, SMARCA2; experiment: Secondary ATPase assay
Method: Exemplary compounds were evaluated for their ability to inhibit human SMARCA2 in ATPase assays as detailed in Table 2 below. Dose response curves for compound nos.

SMARCA2 [3] = biological target: T1, SMARCA2; experiment: Dose response experiment, ATPase assay
Source text: The SMARCA2-1 gene (amino acids 437-1493) encompassing all domains (HAS, BRK, ATPase and Bromodomain) required for DNA binding and ATPase activity were cloned into a pFASTBac1 plasmid for insect cell expression (FIG. 2A). In brief, one positive colony was selected and grown to produce enough bacmid DNA. The purified bacmid DNA was used to transfect expiSF9 insect cells using ExpiFectamine protocol as recommended by the manufacturer (Invitrogen). The P0 virus was first generated from the transfected cells, which was subsequently used to generate a P1 virus stock to have enough virus for several rounds of infections and/or large-scale production of SMARCA2-1 enzyme. […]
as §1
Exemplary compounds were evaluated for their ability to inhibit human SMARCA2 in ATPase assays as detailed in Table 2 below. […]

Question: How did the “% ATPase activity in HTS” value (SMARCA2 [1]) turn out when O[C@@H]1CC[C@H](Nc2nc(NCc3ccc(Cl)c(Cl)c3)c3ccccc3n2)C1 [Compound 6] was run?
Answer: 97.3%

Question: How did the IC50 (SMARCA2 [2]) turn out when Clc1ccc(CNc2nc(NC3CCCC3)nc3ccccc23)cc1Cl [Compound 8] was run?
Answer: 5 µM

Question: What about the “% ATPase activity in HTS” value (SMARCA2 [1]) of the same molecule?
Answer: 10.6%

Question: What about the IC50 (SMARCA2 [3]) of the same molecule?
Answer: 14.8 µM

Question: With COc1cc2nc(NC3CCCC3)nc(NCc3ccc(Cl)c(Cl)c3)c2cc1OC [Compound 7] as the molecule, how does the “% ATPase activity in HTS” value (SMARCA2 [1]) read?
Answer: 26.9%

Question: And the IC50 (SMARCA2 [3])?
Answer: 25.3 µM
